# Entries after “also recorded” stand apart in the source; their conditions may differ.
# Legend:
# Type in all cases: biochemical
# myeloperoxidase (MPO) [1] = molecular target: T1, myeloperoxidase (MPO) (Homo sapiens, UniProt P05164); test: MPO chlorinating activity (Celestine Blue B assay); conditions: 0.008–8 μM peptide, 0.8 nM MPO heme, 200 μM CB, 150 mM NaCl, 50 μM H2O2, 50 mM Na-acetate pH 5.5
# T1 construct: Native myeloperoxidase (MPO) was obtained from human leukocyte extract by successive chromatography on heparin-Sepharose and phenyl-agarose; from tissue; host or cells: human leukocyte extract
# Description: MPO chlorinating activity was evaluated fluorometrically using Celestine Blue B (CB) which was oxidized to fluorescent glycol (λex = 487 nm, λem = 578 nm) by taurine N-chloramine produced in the reaction of taurine with HOCl generated by MPO [39]. The assay was performed in 96-plate format. MPO was preincubated with peptides for 5 min in a volume of 100 μL, with the concentrations being: MPO, 1.6 nM heme and peptide, 16 nM–16 μM. Then, 100 μL aliquots of CB-containing mix (CB, 400 µM; H2O2, 100 µM; taurine, 4 mM; KI, 10 µM; NaCl, 300 mM; 50 mM Na-acetate buffer, pH 5.5) were added to MPO/peptide and to 100 μL of HOCl standards (0–150 μM). The fluorescence measurement was made with a CLARIOstar multimodal plate reader (BMG Labtech, Ortenberg, Germany) at 15 min after the reaction started. Fluorescence intensity detected for HOCl standards of HOCl was used for calculating the chlorinating activity as mole of HOCl per mole of MPO heme per second. To determine the type of CAMP-induced inhibition, KM and Vmax were obtained by varying substrates of MPO: NaCl in a final concentration from 25 to 300 mM, or H2O2 in a final concentration from 5 to 80 µM.
# The Hannes-Wolf plots were made as ([Substrate]/V = f([Substrate]). KM was equal in magnitude to the intercept made on the abscissa axis by the approximating straight line; Vmax was calculated as a reciprocal value of the straight-line slope. The inhibition constant (Ki) for noncompetitive inhibition was calculated as follows: Ki = [I]/((Vmax − Vmax’)/Vmax’); Ki for competitive inhibition was calculated as follows: Ki = [I]/((KM’ − KM)/KM); Ki for mixed inhibition was calculated as follows: Ki = [I]/(((KM’ − KM)/KM)^2 + ((Vmax − Vmax’)/Vmax’))^2)^0.5; and Ki for uncompetitive inhibition was calculated as follows: Ki = [I]/(((KM − KM’)/KM’)^2 + ((Vmax – Vmax’)/Vmax’))^2)^0.5, where [I]—concentration of inhibitor (CAMP), KM—Michaelis constant without inhibitor, Vmax—maximal rate without inhibitor, KM’—Michaelis constant in the presence of inhibitor, Vmax’—maximal rate in the presence of inhibitor.
# Chlorinating activity is a distinctive feature of MPO as compared with other peroxidases and it is an important property, enabling MPO to combat microbes. We tested whether the inhibitory effects of pept_1545 and Hm-AMP8 on peroxidase activity extend to MPO chlorinating activity. Chlorinating activity was measured using a fluorometric CB-based assay. To determine the concentration dependence of the effect of CAMPs on MPO chlorinating activity, the 0.008–8 μM concentration range (corresponding to 10–10,000 peptide molecules per heme) was used.
# myeloperoxidase (MPO) [2] = molecular target: T1, myeloperoxidase (MPO); test: MPO heme absorbance spectra (Compound II formation and decay, MPO turnover); conditions: 100 μM H2O2, 10 mM Na-phosphate pH 7.4
# Description: Native myeloperoxidase (MPO) was obtained from human leukocyte extract by successive chromatography on heparin-Sepharose and phenyl-agarose followed by gel-filtration on a Sephacryl S-200 HR, as previously described. The Reinheit Zahl value (A430 nm/A280 nm) for the purified protein was 0.85. The MPO concentration was determined as the heme concentration measured spectrophotometrically at 430 nm with a molar extinction coefficient of 91,000 M^−1 cm^−1 [35].
# Spectra of MPO were recorded on a Cary 50 Bio UV-Vis spectrophotometer (Varian, Mulgrave, Australia). Experiments were performed with Eppendorf UVette plastic UV/Vis cuvettes (Hamburg, Germany). An MPO concentration was 2 μM heme. MPO was mixed with CAMP in 10 mM Na-phosphate buffer (pH 7.4) supplemented with 0.2 mM DTPA. H2O2 was added as a microvolume of concentrated solution (100 μM final).
# To elucidate the influence of CAMPs on MPO catalytic activity, we analyzed absorbance spectral changes for MPO activated by H2O2 in the presence of peptides. The spectra were obtained with 2 μM MPO heme and 100 μM H2O2 in 10 mM Na-phosphate buffer, pH 7.4. All reactions in these and further experiments were performed in buffers supplemented with 0.2 mM diethylenetriaminepentaacetic acid (DTPA) to sequester free transition metal ions to prevent tyrosine and cysteine autooxidation.
# Figure 2 Time courses of spectral absorbance changes at 430 nm (indicative of MPO ground state) and 455 nm (indicative of Compound II) in the absence and presence of cationic antimicrobial peptides (CAMPs) in the system MPO/H2O2. The name of CAMP is given in parentheses after the panel designation (A–D). H2O2 (100 µM) was added to MPO (2 µM heme) or MPO preincubated with peptides at different peptide/heme molar ratios for 5 min in 10 mM Na-phosphate buffer, pH 7.4. Spectra were taken before and 0.25 min, 5 min, 10 min, and so on after adding H2O2. The initial absorbance values (before H2O2 addition) are shown as a red square marker. […]
# myeloperoxidase (MPO) [3] = molecular target: T1, myeloperoxidase (MPO); test: Dityrosine fluorescence detection during MPO/H2O2 reaction; conditions: 40 μM peptide, 0.4 μM MPO heme, 50 μM H2O2, 10 mM Na-phosphate pH 7.4, 0.2 mM DTPA, λex 315 nm
# Description: Formation of dityrosine during the MPO reaction with CAMPs was monitored by fluorescence on a CM 2203 spectrofluorometer (Minsk, Belarus) with an excitation wavelength of 315 nm. Emission spectra were recorded between 350 nm and 500 nm, with the maximum being at 405–410 nm. MPO (0.4 μM) in a 1 mL cuvette was mixed with CAMP (40 μM) at pH 7.4 in 10 mM Na-phosphate buffer supplemented with 0.2 mM DTPA, and the starting emission spectrum was recorded. Succeeding spectra were taken at time intervals following the addition of 50 μM H2O2 to the continuously stirred reaction mixture.
# Since dityrosine is an intensely fluorescent compound, the fluorescence method can be applied to detect its formation. MPO (0.4 µM heme) and tyrosine-containing Hm-AMP2 (40 µM) or HM-AMP8 (40 µM) were mixed in a cuvette in 10 mM Na-phosphate buffer, pH 7.4. No emission peak characteristic of dityrosine was observed. Succeeding spectra were recorded at time intervals after H2O2 (50 µM) addition. Dityrosine formation was monitored by the increase in fluorescence intensity.
# T1 sequence (P05164 279-745 limits assumed): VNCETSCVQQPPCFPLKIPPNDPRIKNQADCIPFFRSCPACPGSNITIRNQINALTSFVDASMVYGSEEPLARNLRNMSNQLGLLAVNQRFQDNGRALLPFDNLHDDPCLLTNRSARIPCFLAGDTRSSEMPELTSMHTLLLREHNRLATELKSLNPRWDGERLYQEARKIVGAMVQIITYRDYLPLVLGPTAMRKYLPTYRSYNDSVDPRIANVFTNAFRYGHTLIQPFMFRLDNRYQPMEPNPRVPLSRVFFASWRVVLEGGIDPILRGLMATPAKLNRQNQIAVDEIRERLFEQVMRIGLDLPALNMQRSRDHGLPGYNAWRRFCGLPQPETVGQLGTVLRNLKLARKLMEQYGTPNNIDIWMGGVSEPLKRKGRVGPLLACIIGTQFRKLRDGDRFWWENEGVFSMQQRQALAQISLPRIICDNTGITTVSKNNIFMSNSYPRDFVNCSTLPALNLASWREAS
# T1 sequence (P05164 165-273 limits assumed): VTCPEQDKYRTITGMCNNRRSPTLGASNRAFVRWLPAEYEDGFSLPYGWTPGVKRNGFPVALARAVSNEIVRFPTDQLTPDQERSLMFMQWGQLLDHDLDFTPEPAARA
sequence,measurement,setting,value
"EKRWRRLIFNYF [Hm-AMP2, synthetic cationic antimicrobial peptide …]",effect on MPO chlorinating activity,myeloperoxidase (MPO) [1],no significant effect
same,effect on H2O2-induced formation and decay of MPO Compound II / MPO turnover (summary),"myeloperoxidase (MPO) [2]; 2 μM MPO heme, all concentrations",accelerated MPO turnover; also recorded: Acceleration of CII reduction to native MPO
same,effect on Compound II decay to native MPO,"myeloperoxidase (MPO) [2]; peptide/heme molar ratio up to 45:1, 2 μM MPO heme","accelerated Compound II decay to native MPO, with the effect being greater at a higher peptide/heme molar ratio"
same,dityrosine formation (fluorescence),myeloperoxidase (MPO) [3],time-dependent generation of dityrosine; also recorded: diY formation

# Reference: article PMC9774438, “Effects of Synthetic Short Cationic Antimicrobial Peptides on the Catalytic Activity of Myeloperoxidase, Reducing Its Oxidative Capacity” (Antioxidants, 2022)
